Test results: patent US8080529B2, “Macrolides with anti-inflammatory activity” (Glaxo Group Limited, priority 2005, dated 2011)

How the values were obtained:
Type in all cases: cell-based
TNF-α = assay: Inhibition of TNF-α production by stimulated human peripheral blood leukocytes in vitro
Description: (§1) Test substances used in in vitro experiments were dissolved in dimethyl sulfoxide (DMSO) (Kemika, Croatia) at concentrations of 50 mM and 10 mM, and were further diluted to final concentrations of 50 μM and 10 μM in 1 mL Dulbecco's modified Eagle medium (DMEM) supplemented with 1% heat inactivated fetal bovine serum (FBS), 1% L-glutamine, 50 U/ml penicillin, 50 μg/ml streptomycin and 2.5 μg/mL Fungizone (amphotericin B). Media and all media supplements were purchased from Gibco, Australia, except the FBS was purchased from Sigma, USA.
(§2) Peripheral blood leukocytes (PBL) were obtained from venous blood of healthy volunteers by sedimentation on 2% dextran T-500 (Amersham Biosciences, USA) and subsequent centrifugations of leukocyte rich plasma.
(§3) Peripheral blood leukocytes (PBL), isolated as described above, were seeded in a 48-well plate at a concentration of 3 to 5×10^6 cell per well in culture medium consisting of RPMI 1640 medium (Institute of Immunology, Croatia) supplemented with 10% heat-inactivated fetal calf serum (FCS, Biowhittaker, USA), 100 U/ml penicillin (Gibco, Australia), 100 μg/ml streptomycin (Gibco, Australia) and 2 mM L-glutamine (Gibco, Australia), and preincubated with the test compounds for 2 h at 37° C., in an atmosphere of 5% CO2, and 90% humidity. Then, stimuli (Sigma, USA) were added to a final concentration of 2 μg/mL lipopolysaccharide (LPS), 1 μg/mL phorbol 12-myristate 13-acetate (PMA) or 120 μg/mL zymosan. Samples were incubated overnight under conditions described above. At the end of incubation, the supernatants were transferred to eppendorf tubes and centrifuged for 10 min at 1500×g. Concentrations of human TNF-α, IL-1β, IL-6 and IL-8 were determined in cell supernatants by sandwich ELISA, using capture and detection antibodies (R&D Systems, Minneapolis, Minn.) according to the manufacturer's recommendations.
(§4) Inhibition (as percentage) was calculated using the following formula: % inhibition=(1−concentration of cytokines in sample/concentration of cytokines in positive control)×100.
(§5) The positive control refers to LPS-, PMA- or zymosan-stimulated samples that were not preincubated with test compounds.

IL-6 = assay: Inhibition of IL-6 production by stimulated human peripheral blood leukocytes in vitro
Description: as §1, §2, §3, §4, §5

IL-8 = assay: Inhibition of IL-8 production by stimulated human peripheral blood leukocytes in vitro
Description: as §1, §2, §3, §4, §5

IL-1α = assay: Inhibition of IL-1 production by stimulated human peripheral blood leukocytes in vitro

Compound: CCC(=O)N(C)[C@H]1C[C@@H](C)O[C@@H](O[C@@H]2[C@@H](C)[C@H](O[C@H]3C[C@@](C)(OC)[C@@H](OC(=O)CCN(CC)CC)[C@H](C)O3)[C@@H](C)C(=O)O[C@H](CC)[C@@](C)(O)[C@H](O)[C@@H](C)NC(=O)[C@H](C)C[C@@]2(C)OC)[C@@H]1O [Example 63, 3′-N-methyl-3′-N-propionyl-4″-O-(3-diethylaminopropionyl)-6-O-methyl-9a-aza-9a-homoerythromycin A]
- Percentage of inhibition of TNF-α production (TNF-α; 10 μM, LPS-stimulated PBL): 0%
- Percentage of inhibition of TNF-α production (TNF-α; 10 μM, PMA-stimulated PBL): 21%
- Percentage of inhibition of TNF-α production (TNF-α; 10 μM, zymosan-stimulated PBL): 0%
- Percentage of inhibition of TNF-α production (TNF-α; 50 μM, LPS-stimulated PBL): 69%
- Percentage of inhibition of TNF-α production (TNF-α; 50 μM, PMA-stimulated PBL): 73%
- Percentage of inhibition of TNF-α production (TNF-α; 50 μM, zymosan-stimulated PBL): 87%
- Percentage of inhibition of IL-6 production (IL-6; 10 μM, LPS-stimulated PBL): 8%
- Percentage of inhibition of IL-6 production (IL-6; 10 μM, PMA-stimulated PBL): 24%
- Percentage of inhibition of IL-6 production (IL-6; 10 μM, zymosan-stimulated PBL): 0%
- Percentage of inhibition of IL-6 production (IL-6; 50 μM, LPS-stimulated PBL): 60%
- Percentage of inhibition of IL-6 production (IL-6; 50 μM, PMA-stimulated PBL): 62%
- Percentage of inhibition of IL-6 production (IL-6; 50 μM, zymosan-stimulated PBL): 90%
- Percentage of inhibition of IL-8 production (IL-8; 10 μM, LPS-stimulated PBL): 0%
- Percentage of inhibition of IL-8 production (IL-8; 10 μM, PMA-stimulated PBL): 0%
- Percentage of inhibition of IL-8 production (IL-8; 10 μM, zymosan-stimulated PBL): 0%
- Percentage of inhibition of IL-8 production (IL-8; 50 μM, LPS-stimulated PBL): 36%
- Percentage of inhibition of IL-8 production (IL-8; 50 μM, PMA-stimulated PBL): 3%
- Percentage of inhibition of IL-8 production (IL-8; 50 μM, zymosan-stimulated PBL): 44%
- Percentage of inhibition of IL-1α production (IL-1α; 10 μM, LPS-stimulated PBL): 59%
- Percentage of inhibition of IL-1α production (IL-1α; 10 μM, PMA-stimulated PBL): 52%
- Percentage of inhibition of IL-1α production (IL-1α; 10 μM, zymosan-stimulated PBL): 45%
- Percentage of inhibition of IL-1α production (IL-1α; 50 μM, LPS-stimulated PBL): 89%
- Percentage of inhibition of IL-1α production (IL-1α; 50 μM, PMA-stimulated PBL): 81%
- Percentage of inhibition of IL-1α production (IL-1α; 50 μM, zymosan-stimulated PBL): 100%
